# According to PMC9126943, “ADAMTS4-specific MR probe to assess aortic aneurysms in vivo using synthetic peptide libraries” (Nature Communications, 2022):
# Where a SMILES comes first, the peptide text is derived from it. Bridges are numbered along the chain shown (N, C = ends). The star is where a group is joined. DOTA = O=C(O)CN1CCN(CC(=O)O)CCN(CC(=O)*)CCN(CC(=O)O)CC1
# Biological target: T1, ADAMTS4 in the aortic wall of ApoE−/− mice (Mus musculus, UniProt Q8BNJ2)
# T1 construct: from tissue
# T1 sequence (Q8BNJ2 209-833): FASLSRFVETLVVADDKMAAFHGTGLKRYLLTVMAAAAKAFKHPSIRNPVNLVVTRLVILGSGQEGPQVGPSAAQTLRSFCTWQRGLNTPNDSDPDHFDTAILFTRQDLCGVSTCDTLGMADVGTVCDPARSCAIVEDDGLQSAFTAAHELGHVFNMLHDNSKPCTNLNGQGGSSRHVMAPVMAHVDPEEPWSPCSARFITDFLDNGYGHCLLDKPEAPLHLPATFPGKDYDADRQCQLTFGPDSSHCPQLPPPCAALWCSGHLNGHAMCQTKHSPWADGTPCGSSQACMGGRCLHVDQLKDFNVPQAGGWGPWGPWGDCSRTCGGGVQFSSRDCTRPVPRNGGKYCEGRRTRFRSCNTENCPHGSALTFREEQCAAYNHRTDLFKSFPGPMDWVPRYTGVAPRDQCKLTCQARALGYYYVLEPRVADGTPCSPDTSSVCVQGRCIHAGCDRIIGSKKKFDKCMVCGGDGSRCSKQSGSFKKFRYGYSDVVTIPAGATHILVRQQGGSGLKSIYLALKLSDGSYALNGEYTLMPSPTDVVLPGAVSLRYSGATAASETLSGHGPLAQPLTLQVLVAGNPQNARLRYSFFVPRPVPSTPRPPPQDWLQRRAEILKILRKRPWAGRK
# Assay: In vivo MRI, early detection study (days 2, 4, 10)
# Conditions: for ADAMTS4-MRI signal (CNR): day 4 of AngII
# Method: For the early detection study, we used an AAA group (n = 20). MR imaging was performed after 2, 4, and 10 days of AngII-infusion. At each time point, mice were scanned prior to and following the administration of the ADAMTS4-specific probe (0.13 mmol/kg body weight). On day 28 post implantation, only native imaging was performed and subsequently, the aortic samples were excised.
# MR imaging was performed using a clinical 3 T Siemens system (Biograph, Siemens Healthcare Solutions, Erlangen, Germany). The system was equipped with a 4-channel receive-coil array for mouse body applications (Mouse Heart Array, P-H04LE-030, Version 1, Rapid Biomedical, Germany). Following anesthesia injection, the animals were positioned in a prone position, and body temperature (37 °C) was monitored using an MR-compatible heating system (Model 1025, SA Instruments Inc, Stony Brook, NY) to avoid rapid cooling. For intravenous administration of the molecular probe, venous access was established using a small diameter tube with an attached 30 G cannula. The imaging protocol included the following sequences:
# After a three-dimensional (3D) gradient-echo scout scan, a non-contrast-enhanced two-dimensional time-of-flight angiography (2D TOF) was acquired in transverse orientation for visualization of the abdominal aorta with the following parameters: field of view (FOV) of […], a matrix of 960 × 960, resolution of 0.2 × 0.2 × 0.5 mm, 40 slices, repetition time (TR)/echo time (TE) of 35 ms/4.44 ms, flip angle of 90°, and bandwidth of 124 Hz/Px. A maximum intensity projection (MIP) was then automatically generated to obtain an arterial angiogram of the abdominal aorta for planning the subsequent MR angiography and delayed-enhancement scans. A 2D inversion time (TI) scout sequence, planned perpendicular to the abdominal aorta, was used to determine the optimal TI for blood-signal nulling. Acquisition parameters were as follows: for the 2D TI sequence—FOV 340 × 340 mm, matrix 576 × 576, spatial resolution 0.6 × 0.6 × 3 mm, TR/TE 44.91 ms/2.09 ms, flip angle 35°, bandwidth 579 Hz/Px, TR between subsequent IR pulses 1000 ms; and for the high-resolution 3D IR FLASH sequence—FOV 57 × 57 mm, matrix 384 × 384, spatial resolution = 0.1 × 0.1 × 0.3 mm, 56 slices, TR/TE = 1019.72/7.02 ms, flip angle 30°, bandwidth 130 Hz/px, TR between subsequent IR pulses = 1000 ms.
# Analysis of resulting MR images was performed using OsiriX (version 7.1, OsiriX Foundation, Bernex, Switzerland). All morphometric measurements were conducted on high-resolution MRI images. In order to assess the signal intensities, regions of interest (ROIs) were measured as areas of signal enhancement, which were co-localized with areas of aneurysmal-aortic tissue. For these areas, the CNR was calculated using the following formula: CNR = (Combined vessel-wall and aneurysmal-aortic-tissue-signal − blood-signal)/standard-deviation-signal (noise). The signal of noise was defined as the standard deviation in pixel intensity from an ROI placed in the background air anterior to the aorta.
structure (smiles),measurement,setting,value
"N=C(N)NCCC[C@@H]1NC(=O)[C@H](CCCNC(=N)N)NC(=O)[C@H](CO)NC(=O)[C@@H](N)CSSC[C@@H](C(=O)N[C@@H](CO)C(=O)NCC(=O)NCC(=O)N[C@@H](CO)C(=O)NCC(=O)NCC(=O)N[C@@H](CCCCNC(=O)CN2CCN(CC(=O)O)CCN(CC(=O)O)CCN(CC(=O)O)CC2)C(=O)NCC(N)=O)NC(=O)CNC1=O (Gd complex, metal not drawn) [ADAMTS4-specific probe] (H-CSRRGCSGGSGGK(DOTA)G-NH2; disulfide 1-6)",ROC curve area for prediction of a fatal AAA rupture,ADAMTS4-MRI level after 4 days,0.96
same,sensitivity for prediction of a fatal AAA rupture (ROC),ADAMTS4-MRI level after 4 days,0.88
same,specificity for prediction of a fatal AAA rupture (ROC),ADAMTS4-MRI level after 4 days,0.9
same,ADAMTS-4 levels (CNR),"day 4, subgroup n = 4 without significant outward remodeling on MRI",11.7±0.8
same,ADAMTS4-MRI signal (CNR),animals that developed an AAA and survived for 4 weeks,10.3 ± 1.1
same,ADAMTS4-MRI signal (CNR),animals that did not develop an AAA,6.9 ± 1.2
same,ADAMTS4-MRI signal (CNR),animals with fatal AAA rupture,15.2 ± 0.7
